Measurements taken from patent US8865756B2, “Inhibitors of HCV NS5A” (Presidio Pharmaceuticals, Inc., priority 2008, dated 2014).

Test system: HCV 1b_Huh-Luc/Neo-ET cell line persistently expressing a bicistronic genotype 1b replicon in Huh 7 cells
Test: HCV replicon assay (luciferase readout)
Format: cell-based
Details: Hepatitis C virus, Huh-7, 72 h, read-out: Inhibition of HCV genotype 1b
Method in brief: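 Huh 7 cells carrying a genotype 1b luciferase/neo replicon treated in triplicate for 72 h, then luciferase activity measured. Signal expressed as % of control; EC50 from four-parameter logistic fit, determined several times.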

`COC(=O)N[C@@H](C(=O)N1CCC[C@H]1c1ncc(-c2ccc(C#Cc3ccc(-c4cnc([C@@H]5CCCN5C(=O)[C@H](NC(=O)N5CCC[C@H]5C)c5ccccc5)[nH]4)cc3)cc2)[nH]1)c1ccccc1` [Compound 262] and `COC(=O)N[C@@H](C(=O)N1CCC[C@H]1c1ncc(-c2ccc(C#Cc3ccc(-c4cnc([C@@H]5CCCN5C(=O)[C@H](NC(=O)N5CCC[C@H](O)C5)c5ccccc5)[nH]4)cc3)cc2)[nH]1)c1ccccc1` [Compound 263] cannot be ordered by EC50: under 1 nM for the first, under 1 nM for the second.

`COC(=O)N[C@@H](C(=O)N1CCC[C@H]1c1ncc(-c2ccc(C#Cc3ccc(-c4cnc([C@@H]5CCCN5C(=O)[C@H](NC(=O)N5CCC[C@@H](O)C5)c5ccccc5)[nH]4)cc3)cc2)[nH]1)c1ccccc1` [Compound 264] and `COC(=O)N[C@@H](C(=O)N1CCC[C@H]1c1ncc(-c2ccc(C#Cc3ccc(-c4cnc([C@@H]5CCCN5C(=O)[C@H](NC(=O)N5CC[C@@H](O)C5)c5ccccc5)[nH]4)cc3)cc2)[nH]1)c1ccccc1` [Compound 268] cannot be ordered by EC50: under 1 nM for the first, under 1 nM for the second.

`C[C@@H](c1ncc(-c2ccc(C#Cc3ccc(-c4cnc([C@@H]5CCCN5C(=O)[C@H](NC(=O)OC(C)(C)C)c5ccccc5)[nH]4)cc3)cc2)[nH]1)N(C)C(=O)[C@H](NC(=O)OC(C)(C)C)c1ccccc1` [Compound 265] and `C[C@H](NC(=O)[C@H](NC(=O)OC(C)(C)C)c1ccccc1)c1ncc(-c2ccc(C#Cc3ccc(-c4cnc([C@@H]5CCCN5C(=O)[C@H](NC(=O)OC(C)(C)C)c5ccccc5)[nH]4)cc3)cc2)[nH]1` [Compound 280] cannot be ordered by EC50: under 1 nM for the first, under 1 nM for the second.

First: COC(=O)N[C@H](C(=O)N1CCC[C@H]1c1ncc(-c2ccc(C#Cc3ccc(-c4cnc([C@@H]5CCCN5C(=O)[C@@H](NC(=O)OC)C(C)C)[nH]4)cc3)cc2)[nH]1)C(C)C [Compound 266]
Second: COC(=O)N[C@@H](C(=O)N1CCC[C@H]1c1ncc(-c2ccc(C#Cc3ccc(-c4cnc([C@@H]5CCCN5C(=O)[C@H](NC(=O)OC)C(C)C)[nH]4)cc3)cc2)[nH]1)C(C)C [Compound 292]
The EC50 of the first is lower: under 1 nM for the first, over 1000 nM for the second.

`COC(=O)N[C@H](C(=O)N(C)[C@@H](C)c1ncc(-c2ccc(C#Cc3ccc(-c4cnc([C@@H]5CCCN5C(=O)[C@@H](NC(=O)OC)C(C)C)[nH]4)cc3)cc2)[nH]1)C(C)C` [Compound 267] and `COC(=O)N[C@H](C(=O)N[C@@H](C)c1ncc(-c2ccc(C#Cc3ccc(-c4cnc([C@@H]5CCCN5C(=O)[C@@H](NC(=O)OC)C(C)C)[nH]4)cc3)cc2)[nH]1)C(C)C` [Compound 275] cannot be ordered by EC50: under 1 nM for the first, under 1 nM for the second.

`COC(=O)N[C@@H](C(=O)N1CCC[C@H]1c1ncc(-c2ccc(C#Cc3ccc(-c4cnc([C@@H]5CCCN5C(=O)[C@H](NC(=O)N5CC[C@H](O)C5)c5ccccc5)[nH]4)cc3)cc2)[nH]1)c1ccccc1` [Compound 269] and `COC(=O)N[C@@H](C(=O)N1CCC[C@H]1c1ncc(-c2ccc(C#Cc3ccc(-c4cnc([C@@H]5CCCN5C(=O)[C@H](NC(=O)N5CC[C@H](F)C5)c5ccccc5)[nH]4)cc3)cc2)[nH]1)c1ccccc1` [Compound 270] cannot be ordered by EC50: under 1 nM for the first, under 1 nM for the second.

`COC(=O)N[C@@H](C(=O)N1CCC[C@H]1c1ncc(-c2ccc(C#Cc3ccc(-c4cnc([C@@H]5CCCN5C(=O)[C@H](NC(=O)N5CC[C@@H](OC)C5)c5ccccc5)[nH]4)cc3)cc2)[nH]1)c1ccccc1` [Compound 271] and `COC(=O)N[C@@H](C(=O)N1CCC[C@H]1c1ncc(-c2ccc(C#Cc3ccc(-c4cnc([C@@H]5CCCN5C(=O)[C@H](NC(=O)N5CC[C@H](OC)C5)c5ccccc5)[nH]4)cc3)cc2)[nH]1)c1ccccc1` [Compound 272] cannot be ordered by EC50: under 1 nM for the first, under 1 nM for the second.

`COC(=O)N[C@@H](C(=O)N1CCC[C@H]1c1ncc(-c2ccc(C#Cc3ccc(-c4cnc([C@@H]5CCCN5C(=O)[C@H](NC(=O)N5CCC(C)(O)CC5)c5ccccc5)[nH]4)cc3)cc2)[nH]1)c1ccccc1` [Compound 273] and `COC(=O)N[C@@H](C(=O)N1CCC[C@H]1c1ncc(-c2ccc(C#Cc3ccc(-c4cnc([C@@H]5CCCN5C(=O)[C@H](NC(=O)C5(O)CC5)c5ccccc5)[nH]4)cc3)cc2)[nH]1)c1ccccc1` [Compound 277] cannot be ordered by EC50: under 1 nM for the first, under 1 nM for the second.

`COC(=O)N[C@@H](C(=O)N(C)[C@@H](C)c1ncc(-c2ccc(C#Cc3ccc(-c4cnc([C@@H]5CCCN5C(=O)[C@H](NC(=O)OC)c5ccccc5)[nH]4)cc3)cc2)[nH]1)c1ccccc1` [Compound 274] and `COC(=O)N[C@@H](C(=O)N[C@@H](C)c1ncc(-c2ccc(C#Cc3ccc(-c4cnc([C@@H]5CCCN5C(=O)[C@H](NC(=O)OC)c5ccccc5)[nH]4)cc3)cc2)[nH]1)c1ccccc1` [Compound 279] cannot be ordered by EC50: under 1 nM for the first, under 1 nM for the second.

Compared with `COC(=O)N[C@H](C(=O)N[C@H](c1ncc(-c2ccc(C#Cc3ccc(-c4cnc([C@@H]5CCCN5C(=O)[C@@H](NC(=O)OC)C(C)C)[nH]4)cc3)cc2)[nH]1)C(C)C)C(C)C` [Compound 276], `COC(=O)N[C@@H](C(=O)N[C@@H](C)c1ncc(-c2ccc(C#Cc3ccc(-c4cnc([C@@H]5CCCN5C(=O)[C@H](NC(=O)OC)C(C)C)[nH]4)cc3)cc2)[nH]1)C(C)C` [Compound 290] is higher in EC50: 1 to 9.9 nM for the first, over 1000 nM for the second. The first is the more potent here.

`C[C@@H](c1ncc(-c2ccc(C#Cc3ccc(-c4cnc([C@@H]5CCCN5C(=O)[C@H](NC(=O)C5CC5)c5ccccc5)[nH]4)cc3)cc2)[nH]1)N(C)C(=O)[C@H](NC(=O)C1CC1)c1ccccc1` [Compound 278] and `COC(=O)N[C@@H](C(=O)N[C@H](c1ncc(-c2ccc(C#Cc3ccc(-c4cnc([C@@H]5CCCN5C(=O)[C@H](NC(=O)OC)c5ccccc5)[nH]4)cc3)cc2)[nH]1)C(C)C)c1ccccc1` [Compound 282] cannot be ordered by EC50: under 1 nM for the first, under 1 nM for the second.

First: CC(C)[C@H](NC(=O)[C@H](NC(=O)OC(C)(C)C)c1ccccc1)c1ncc(-c2ccc(C#Cc3ccc(-c4cnc([C@@H]5CCCN5C(=O)[C@H](NC(=O)OC(C)(C)C)c5ccccc5)[nH]4)cc3)cc2)[nH]1 [Compound 281]
Second: CC(C)(C)OC(=O)N[C@@H](C(=O)N1CCC[C@H]1c1ncc(C#Cc2ccc(C#Cc3cnc([C@@H]4CCCN4C(=O)[C@H](NC(=O)OC(C)(C)C)c4ccccc4)[nH]3)cc2)[nH]1)c1ccccc1 [Compound 300]
The EC50 of the first is higher: 1 to 9.9 nM for the first, under 1 nM for the second. The second is the more potent here.

`COC(=O)N[C@H](C(=O)N1CCC[C@H]1c1ncc(-c2ccc(C#Cc3ccc(-c4cnc([C@@H]5CCCN5C(=O)[C@@H](NC(=O)OC)[C@@H](C)O)[nH]4)cc3)cc2)[nH]1)[C@@H](C)O` [Compound 283] and `COC(=O)N[C@H](C(=O)N1CCC[C@H]1c1ncc(-c2ccc(C#Cc3ccc(-c4cnc([C@@H]5CCCN5C(=O)[C@@H](NC(=O)OC)[C@@H](C)OC)[nH]4)cc3)cc2)[nH]1)[C@@H](C)OC` [Compound 284] cannot be ordered by EC50: under 1 nM for the first, under 1 nM for the second.

`CC(C)[C@H](NC(=O)N1CCOCC1)C(=O)N1CCC[C@H]1c1ncc(-c2ccc(C#Cc3ccc(-c4cnc([C@@H]5CCCN5C(=O)[C@@H](NC(=O)N5CCOCC5)C(C)C)[nH]4)cc3)cc2)[nH]1` [Compound 285] and `CC(C)[C@H](NC(=O)N1CCCC1)C(=O)N1CCC[C@H]1c1ncc(-c2ccc(C#Cc3ccc(-c4cnc([C@@H]5CCCN5C(=O)[C@@H](NC(=O)N5CCCC5)C(C)C)[nH]4)cc3)cc2)[nH]1` [Compound 288] cannot be ordered by EC50: over 1000 nM for the first, over 1000 nM for the second.

`CC(C)[C@H](NC(=O)N1CCC(O)CC1)C(=O)N1CCC[C@H]1c1ncc(-c2ccc(C#Cc3ccc(-c4cnc([C@@H]5CCCN5C(=O)[C@@H](NC(=O)N5CCC(O)CC5)C(C)C)[nH]4)cc3)cc2)[nH]1` [Compound 286] and `CC(C)[C@@H](NC(=O)N1CCCC1)C(=O)N1CCC[C@H]1c1ncc(-c2ccc(C#Cc3ccc(-c4cnc([C@@H]5CCCN5C(=O)[C@H](NC(=O)N5CCCC5)C(C)C)[nH]4)cc3)cc2)[nH]1` [Compound 293] cannot be ordered by EC50: over 1000 nM for the first, over 1000 nM for the second.

`CC(C)[C@H](NC(=O)N1CCN(C)CC1)C(=O)N1CCC[C@H]1c1ncc(-c2ccc(C#Cc3ccc(-c4cnc([C@@H]5CCCN5C(=O)[C@@H](NC(=O)N5CCN(C)CC5)C(C)C)[nH]4)cc3)cc2)[nH]1` [Compound 287] and `CC(C)[C@@H](NC(=O)C1CC1)C(=O)N1CCC[C@H]1c1ncc(C#Cc2ccc(C#Cc3cnc([C@@H]4CCCN4C(=O)[C@H](NC(=O)C4CC4)C(C)C)[nH]3)cc2)[nH]1` [Compound 302] cannot be ordered by EC50: over 1000 nM for the first, over 1000 nM for the second.

`COC(=O)N[C@H](C(=O)N1CCC[C@H]1c1ncc(-c2ccc(C#Cc3ccc(-c4cnc([C@H](C)NC(=O)[C@@H](NC(=O)OC)[C@@H](C)OC)[nH]4)cc3)cc2)[nH]1)C(C)OC` (some centres unmarked) [Compound 289] and `COC(=O)N[C@H](C(=O)N[C@@H](C)c1ncc(-c2ccc(C#Cc3ccc(-c4cnc([C@@H]5CCCN5C(=O)[C@@H](NC(=O)OC)[C@@H](C)O)[nH]4)cc3)cc2)[nH]1)[C@@H](C)O` [Compound 291] cannot be ordered by EC50: under 1 nM for the first, under 1 nM for the second.

First: CC(C)[C@@H](NC(=O)OC(C)(C)C)C(=O)N1CCC[C@H]1c1ncc(C#Cc2ccc(C#Cc3cnc([C@@H]4CCCN4C(=O)[C@H](NC(=O)OC(C)(C)C)C(C)C)[nH]3)cc2)[nH]1 [Compound 301]
Second: COC(=O)N[C@@H](C(=O)N1CCC[C@H]1c1ncc(C#Cc2ccc(C#Cc3cnc([C@@H]4CCCN4C(=O)[C@H](NC(=O)OC)c4ccccc4)[nH]3)cc2)[nH]1)c1ccccc1 [Compound 304]
The EC50 of the first is higher: over 1000 nM for the first, under 1 nM for the second.

`O=C(N[C@@H](C(=O)N1CCC[C@H]1c1ncc(C#Cc2ccc(C#Cc3cnc([C@@H]4CCCN4C(=O)[C@H](NC(=O)C4CC4)c4ccccc4)[nH]3)cc2)[nH]1)c1ccccc1)C1CC1` [Compound 303] and `CC(=O)N[C@@H](C(=O)N1CCC[C@H]1c1ncc(C#Cc2ccc(C#Cc3cnc([C@@H]4CCCN4C(=O)[C@H](NC(C)=O)c4ccccc4)[nH]3)cc2)[nH]1)c1ccccc1` [Compound 306] cannot be ordered by EC50: under 1 nM for the first, under 1 nM for the second.

`CN(C)[C@@H](C(=O)N1CCC[C@H]1c1ncc(C#Cc2ccc(C#Cc3cnc([C@@H]4CCCN4C(=O)[C@@H](c4ccccc4)N(C)C)[nH]3)cc2)[nH]1)c1ccccc1` [Compound 305] and `CN(C)C(=O)N[C@@H](C(=O)N1CCC[C@H]1c1ncc(C#Cc2ccc(C#Cc3cnc([C@@H]4CCCN4C(=O)[C@H](NC(=O)N(C)C)c4ccccc4)[nH]3)cc2)[nH]1)c1ccccc1` [Compound 308] cannot be ordered by EC50: under 1 nM for the first, under 1 nM for the second.

For `CNC(=O)N[C@@H](C(=O)N1CCC[C@H]1c1ncc(C#Cc2ccc(C#Cc3cnc([C@@H]4CCCN4C(=O)[C@H](NC(=O)NC)c4ccccc4)[nH]3)cc2)[nH]1)c1ccccc1` [Compound 307], the EC50 was under 1 nM.
